Experimental data: patent US7671047B2, “Cationically substituted diphenylazetidinones, process for their preparation, medicaments comprising these compounds, and their use” (Sanofi-Aventis Deutschland GmbH, priority 2002, dated 2010)

What follows are compounds tested on uptake of 14C-cholesterol by the liver (cholesterol absorption) (assay: Cholesterol absorption test: uptake of 14C-cholesterol by the liver after peroral test meal). Conditions: dose at which uptake of 14C-cholesterol by the liver was halved (50%) vs control group; test substance given perorally immediately prior to test meal; mouse.
Assay type: in vivo, NMRI mice
Description: Effect of the Compounds of the Invention on Cholesterol Absorption and ^3H-taurocholic Acid Excretion Using Fecal Excrement of Mice, Rats or Hamsters
NMRI mice, Wistar rats, or Golden Syrian hamsters (in groups of n=4-6) were kept in metabolic cages, where they were fed with a standard diet (Altromin, Lage (Lippe)). The afternoon prior to the administration of the radioactive tracers (^14C-cholesterol), the feed was removed and the animals were adapted to grates.
Additionally, the animals were labeled s.c. with ^3H-TCA (taurocholic acid) (for example 1 μCi/mouse up to 5 μCi/rat) 24 hours prior to the peroral administration of the test meal (^14C-cholesterol in Intralipid® 20, Pharmacia-Upjohn).
Cholesterol absorption test: 0.25 ml/mouse Intralipid® 20 (Pharmacia-Upjohn) ((spiked with 0.25 μCi of ^14C-cholesterol in 0.1 mg of cholesterol) was administered perorally by gavage.
Test substances were prepared separately in 0.5% methylcellulose (Sigma)/5% Solutol (BASF, Ludwigshafen) or a suitable vehicle.
The administration volume of the test substance was 0.5 ml/mouse. The test substance was administered immediately prior to the test meal (Intralipid labeled with ^14C-cholesterol) (cholesterol absorption test).
The feces were collected over a period of 24 h: fecal elimination of ^14C-cholesterol and ^3H-taurocholic acid (TCA) was determined after 24 hours.
The livers were removed and homogenized, and aliquots were incinerated in an oximate (Model 307, Packard) to determine the amount of ^14C-cholesterol which had been taken up/absorbed.
The amount of ^14C-cholesterol taken up by the liver was based on the administered dose. The ED50 values were interpolated from a dose-effect curve as the dose at which the uptake of ^14C-cholesterol by the liver was halved (50%), based on a control group.

Question: With `N=C(N)c1ccc(C2C(CCC(O)c3ccc(F)cc3)C(=O)N2c2ccc(F)cc2)cc1` (centres unmarked) [II, 4-{1-(4-Fluorophenyl)-3-[3-(4-fluorophenyl)-3-hydroxypropyl]-4-oxoazetidin-2-yl}benzamidine] as the compound, how does the “ED50 (liver)” value read?
Answer: The value was 0.1 mg/mouse.

Question: How did the “ED50 (liver)” value turn out when `O=C(CCCCCCCCCCC[N+]12CCN(CC1)CC2)NCc1ccc(C2C(CCC(O)c3ccc(F)cc3)C(=O)N2c2ccc(F)cc2)cc1.O=C([O-])C(F)(F)F` (centres unmarked) [IX, 1-[11-(4-{1-(4-Fluorophenyl)-3-[3-(4-fluorophenyl)-3-hydroxypropyl]-4-oxoazetidin-2-yl}benzylcarbamoyl)undecyl]-4-aza-1-azoniabicyclo[2.2.2]octane trifluoroacetate] was run?
Answer: Its value is 0.1 mg/mouse.

Question: For `O=C(CCCCC[N+]12CCN(CC1)CC2)NCc1ccc(C2C(CCC(O)c3ccc(F)cc3)C(=O)N2c2ccc(F)cc2)cc1.O=C([O-])C(F)(F)F` (centres unmarked) [VII], which “ED50 (liver)” value is on record?
Answer: Its value is 0.1 mg/mouse.

Question: How did the “ED50 (liver)” value turn out when `O=C(CCCCCCCCCCC[N+]12CCN(CC1)CC2)NCc1ccc(N2C(=O)C(CCC(O)c3ccccc3)C2c2ccccc2)cc1.O=C([O-])C(F)(F)F` (centres unmarked) [X, 1-[11-{4-[3-(3-Hydroxy-3-phenylpropyl)-2-oxo-4-phenylazetidin-1-yl]benzylcarbamoyl}undecyl)-4-aza-1-azoniabicyclo[2.2.2]octane trifluoroacetate] was run?
Answer: Its value is under 1.0 mg/mouse.

Question: Which “ED50 (liver)” value does the source give for `COc1ccc(C2C(CCC(O)c3ccc(F)cc3)C(=O)N2c2ccc(CNC(=O)CCCCCCCCCCC[N+]34CCN(CC3)CC4)cc2)cc1.O=C([O-])C(F)(F)F` (centres unmarked) [XI, 1-[11-{4-[3-[3-(4-Fluorophenyl)-3-hydroxypropyl]-2-(4-methoxyphenyl)-4-oxoazetidin-1-yl]benzylcarbamoyl}undecyl)-4-aza-1-azoniabicyclo[2.2.2]octane trifluoroacetate] here?
Answer: The value was 0.3 mg/mouse.
